Results as given in paper PMC3406087, “The Molecular Basis of Drug Resistance against Hepatitis C Virus NS3/4A Protease Inhibitors” (PLoS Pathogens, 2012).
Read-outs that look alike come from different tables or passages of the source.

How the values were obtained:
[1] = test system: A156T genotype 1a HCV Con1 luciferase reporter replicon in Huh7 cells; test: Viral replicon-based inhibition assay, A156T variant; type: cell-based, HCV genotype 1a; conditions: Hepatitis C virus, Huh-7, 96 h, read-out: Replicon - IC50, A156T
Description: (§1) Single mutations (R155K, D168A, or A156T) were introduced into the NS3 region of genotype 1a HCV Con1 luciferase reporter replicon using the mega-primer method of mutagenesis. Replicon RNA of each protease variant was introduced into Huh7 cells by electroporation.

[2] = test system: wild-type genotype 1a HCV Con1 luciferase reporter replicon in Huh7 cells; test: Viral replicon-based inhibition assay, wild-type; type: cell-based, HCV genotype 1a; conditions: Hepatitis C virus, Huh-7, luciferase activity 96 hours after electroporation, read-out: Replicon - IC50, WT
Description: . The antiviral activities against the resistant variants trended with changes in binding affinities measured in enzyme inhibition assays (Table 1). […]. Single mutations (R155K, D168A, or A156T) were introduced into the NS3 region of genotype 1a HCV Con1 luciferase reporter replicon using the mega-primer method of mutagenesis. Replicon RNA of each protease variant was introduced into Huh7 cells by electroporation. […]. The drug concentrations required to inhibit replicon replication by 50% (IC50) were calculated directly from the drug inhibition curves.

[3] = test system: R155K genotype 1a HCV Con1 luciferase reporter replicon in Huh7 cells; test: Viral replicon-based inhibition assay, R155K variant; type: cell-based, HCV genotype 1a; conditions: Hepatitis C virus, Huh-7, 96 h, read-out: Replicon - IC50, R155K
Description: as §1

[4] = test system: D168A genotype 1a HCV Con1 luciferase reporter replicon in Huh7 cells; test: Viral replicon-based inhibition assay, D168A variant; type: cell-based, HCV genotype 1a; conditions: Hepatitis C virus, Huh-7, 96 h, read-out: Replicon - IC50, D168A
Description: as §1

[5] = biological target: genotype 1a HCV NS3/4A protease domain (wild-type) (Hepatitis C virus genotype 1a, UniProt A8DG50); test: biochemical; set-up: species or system HCV genotype 1a
genotype 3 viruses = genotype 3 viruses (Q168, T123); cited from earlier work
[6] = biological target: T1, genotype 1a HCV NS3/4A protease domain A156T (Hepatitis C virus genotype 1a, UniProt P27958, A1182T); test: biochemical; set-up: species or system HCV genotype 1a
T1 construct: single-chain construct of the genotype 1a NS3/4A protease domain; His-tag (cleaved yes); made in house; host or cells: E. coli BL21 (DE3)

[7] = apparent Ki, Morrison equation, 5 nM protease, triplicate, average ± standard deviation, read-out: Binding - Ki, WT

Row | Compound | IC50 [1] [nM] | IC50 [2] [nM] | IC50 [3] [nM] | IC50 [4] [nM] | Ki [5] [nM] | Ki [5, 7] [nM] | Efficacy against genotype 3 viruses (genotype 3 viruses) | Ki [6] [nM]
1 | C=C[C@@H]1C[C@]1(NC(=O)[C@@H]1C[C@@H]2CN1C(=O)[C@H](C(C)(C)C)NC(=O)O[C@@H]1C[C@H]1CCCCCc1nc3ccc(OC)cc3nc1O2)C(=O)NS(=O)(=O)C1CC1 [MK-5172] | 108 | 0.11 | 0.55 | 13 | – | – | – | –
2 | CCC[C@H](NC(=O)[C@@H]1[C@H]2CCC[C@H]2CN1C(=O)[C@@H](NC(=O)[C@@H](NC(=O)c1cnccn1)C1CCCCC1)C(C)(C)C)C(=O)C(=O)NC1CC1 [Telaprevir (VX-950), Telaprevir] | > 50000 | 1030 | 5300 | 420 | 34.4 ± 3 | – | – | –
3 | CC[C@@H]1C[C@]1(NC(=O)[C@@H]1C[C@@H]2CN1C(=O)[C@H](C(C)(C)C)NC(=O)OCC(C)(C)CCCCc1cccc3c1CN(C3)C(=O)O2)C(=O)NS(=O)(=O)C1CC1 [Vaniprevir (MK-7009), Vaniprevir] | 176 | 0.34 | > 400 | > 400 | – | 0.74 ± 0.07 | reduced efficacy | –
4 | CC(C)(C)OC(=O)N[C@H]1CCCCC/C=C\[C@@H]2C[C@@]2(C(=O)NS(=O)(=O)C2CC2)NC(=O)[C@@H]2C[C@@H](OC(=O)N3Cc4cccc(F)c4C3)CN2C1=O [Danoprevir (ITMN-191), Danoprevir] | 5.7 | 0.24 | > 100 | 48 | – | 1 ± 0.1 | reduced efficacy | 44.8 ± 3.6
